Patent publication US8192962B2, “Processes for detecting toxic substances” (Daikin Industries, Ltd., priority 2001, dated 2012)

Tested on: Unknown protein yeast genes
Experiment: DNA chip mRNA expression in yeast, unknown protein yeast genes (Table 1)
Assay type: cell-based, Saccharomyces cerevisiae S288C
In short: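 S. cerevisiae S288C grown at 25° C in YPD were exposed in log phase for two hours to one toxic chemical at a growth-inhibiting, non-lethal concentration; untreated cells served as control. Poly(A) mRNA was reverse-transcribed with Cy3/Cy5-dUTP and hybridized to a whole-genome yeast DNA chip at 65° C for over 12 hours; values are fluorescence ratios versus untreated.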

O=[N+]([O-])c1cc[n+]([O-])c2ccccc12 [(5), 4-nitroquinolin-N-oxide]
The level of expressed mRNA in the presence of chemical substance/The level of expressed mRNA in the absence of chemical substance (yeast gene YKL071W): 1.1
The level of expressed mRNA in the presence of chemical substance/The level of expressed mRNA in the absence of chemical substance (yeast gene YKL086W, incubated two hours with chemical substance): 0.8
The level of expressed mRNA in the presence of chemical substance/The level of expressed mRNA in the absence of chemical substance (yeast gene YKL151C, incubated two hours with chemical substance): 1.0
The level of expressed mRNA in the presence of chemical substance/The level of expressed mRNA in the absence of chemical substance (yeast gene YKL153W, incubated two hours with chemical substance): 1.0
The level of expressed mRNA in the presence of chemical substance/The level of expressed mRNA in the absence of chemical substance (yeast gene YKL195W, incubated two hours with chemical substance): 1.9
The level of expressed mRNA in the presence of chemical substance/The level of expressed mRNA in the absence of chemical substance (yeast gene YKR091W, incubated two hours with chemical substance): 1.6
The level of expressed mRNA in the presence of chemical substance/The level of expressed mRNA in the absence of chemical substance (yeast gene YLR054C, incubated two hours with chemical substance): 1.3
The level of expressed mRNA in the presence of chemical substance/The level of expressed mRNA in the absence of chemical substance (yeast gene YLR149C, incubated two hours with chemical substance): 0.8
The level of expressed mRNA in the presence of chemical substance/The level of expressed mRNA in the absence of chemical substance (yeast gene YLR152C, incubated two hours with chemical substance): 1.1
The level of expressed mRNA in the presence of chemical substance/The level of expressed mRNA in the absence of chemical substance (yeast gene YLR194C, incubated two hours with chemical substance): 1.0
The level of expressed mRNA in the presence of chemical substance/The level of expressed mRNA in the absence of chemical substance (yeast gene YLR324W, incubated two hours with chemical substance): 1.3
The level of expressed mRNA in the presence of chemical substance/The level of expressed mRNA in the absence of chemical substance (yeast gene YLR339C): 1.3
The level of expressed mRNA in the presence of chemical substance/The level of expressed mRNA in the absence of chemical substance (yeast gene YLR350W, incubated two hours with chemical substance): 0.8
The level of expressed mRNA in the presence of chemical substance/The level of expressed mRNA in the absence of chemical substance (yeast gene YLR387C, incubated two hours with chemical substance): 1.3
The level of expressed mRNA in the presence of chemical substance/The level of expressed mRNA in the absence of chemical substance (yeast gene YLR460C): 1.3
The level of expressed mRNA in the presence of chemical substance/The level of expressed mRNA in the absence of chemical substance (yeast gene YML117W, incubated two hours with chemical substance): 0.8
The level of expressed mRNA in the presence of chemical substance/The level of expressed mRNA in the absence of chemical substance (yeast gene YMR007W): 1.3
The level of expressed mRNA in the presence of chemical substance/The level of expressed mRNA in the absence of chemical substance (yeast gene YMR009W, incubated two hours with chemical substance): 1.9
The level of expressed mRNA in the presence of chemical substance/The level of expressed mRNA in the absence of chemical substance (yeast gene YMR067C, incubated two hours with chemical substance): 1.1
The level of expressed mRNA in the presence of chemical substance/The level of expressed mRNA in the absence of chemical substance (yeast gene YMR090W): 0.7
The level of expressed mRNA in the presence of chemical substance/The level of expressed mRNA in the absence of chemical substance (yeast gene YMR095C, incubated two hours with chemical substance): 0.9
The level of expressed mRNA in the presence of chemical substance/The level of expressed mRNA in the absence of chemical substance (yeast gene YMR097C, incubated two hours with chemical substance): 0.7
The level of expressed mRNA in the presence of chemical substance/The level of expressed mRNA in the absence of chemical substance (yeast gene YMR102C, incubated two hours with chemical substance): 1.2
The level of expressed mRNA in the presence of chemical substance/The level of expressed mRNA in the absence of chemical substance (yeast gene YMR107W, incubated two hours with chemical substance): 1.1
The level of expressed mRNA in the presence of chemical substance/The level of expressed mRNA in the absence of chemical substance (yeast gene YMR180C, incubated two hours with chemical substance): 1.0
The level of expressed mRNA in the presence of chemical substance/The level of expressed mRNA in the absence of chemical substance (yeast gene YMR184W, incubated two hours with chemical substance): 0.8
The level of expressed mRNA in the presence of chemical substance/The level of expressed mRNA in the absence of chemical substance (yeast gene YMR191W, incubated two hours with chemical substance): 1.5
The level of expressed mRNA in the presence of chemical substance/The level of expressed mRNA in the absence of chemical substance (yeast gene YMR295C, incubated two hours with chemical substance): 1.4
The level of expressed mRNA in the presence of chemical substance/The level of expressed mRNA in the absence of chemical substance (yeast gene YMR316W, incubated two hours with chemical substance): 1.1
The level of expressed mRNA in the presence of chemical substance/The level of expressed mRNA in the absence of chemical substance (yeast gene YNL044W, incubated two hours with chemical substance): 1.2
The level of expressed mRNA in the presence of chemical substance/The level of expressed mRNA in the absence of chemical substance (yeast gene YNL074C, incubated two hours with chemical substance): 1.3
The level of expressed mRNA in the presence of chemical substance/The level of expressed mRNA in the absence of chemical substance (yeast gene YNL092W, incubated two hours with chemical substance): 0.9
The level of expressed mRNA in the presence of chemical substance/The level of expressed mRNA in the absence of chemical substance (yeast gene YNL115C, incubated two hours with chemical substance): 0.8
The level of expressed mRNA in the presence of chemical substance/The level of expressed mRNA in the absence of chemical substance (yeast gene YNL156C, incubated two hours with chemical substance): 1.6
The level of expressed mRNA in the presence of chemical substance/The level of expressed mRNA in the absence of chemical substance (yeast gene YNL234W, incubated two hours with chemical substance): 1.7
The level of expressed mRNA in the presence of chemical substance/The level of expressed mRNA in the absence of chemical substance (yeast gene YNL281W, incubated two hours with chemical substance): 1.7
The level of expressed mRNA in the presence of chemical substance/The level of expressed mRNA in the absence of chemical substance (yeast gene YNL305C, incubated two hours with chemical substance): 1.3
The level of expressed mRNA in the presence of chemical substance/The level of expressed mRNA in the absence of chemical substance (yeast gene YNR068C, incubated two hours with chemical substance): 1.7
The level of expressed mRNA in the presence of chemical substance/The level of expressed mRNA in the absence of chemical substance (yeast gene YOL032W, incubated two hours with chemical substance): 1.4
The level of expressed mRNA in the presence of chemical substance/The level of expressed mRNA in the absence of chemical substance (yeast gene YOL036W, incubated two hours with chemical substance): 1.2
The level of expressed mRNA in the presence of chemical substance/The level of expressed mRNA in the absence of chemical substance (yeast gene YOL047C, incubated two hours with chemical substance): 1.4
The level of expressed mRNA in the presence of chemical substance/The level of expressed mRNA in the absence of chemical substance (yeast gene YOL071W, incubated two hours with chemical substance): 0.9
The level of expressed mRNA in the presence of chemical substance/The level of expressed mRNA in the absence of chemical substance (yeast gene YOL082W, incubated two hours with chemical substance): 1.5
The level of expressed mRNA in the presence of chemical substance/The level of expressed mRNA in the absence of chemical substance (yeast gene YOL083W, incubated two hours with chemical substance): 1.4
The level of expressed mRNA in the presence of chemical substance/The level of expressed mRNA in the absence of chemical substance (yeast gene YOL117W, incubated two hours with chemical substance): 1.7
The level of expressed mRNA in the presence of chemical substance/The level of expressed mRNA in the absence of chemical substance (yeast gene YOL131W, incubated two hours with chemical substance): 1.5
The level of expressed mRNA in the presence of chemical substance/The level of expressed mRNA in the absence of chemical substance (yeast gene YOL150C): 1.0
The level of expressed mRNA in the presence of chemical substance/The level of expressed mRNA in the absence of chemical substance (yeast gene YOL162W, incubated two hours with chemical substance): 0.9
The level of expressed mRNA in the presence of chemical substance/The level of expressed mRNA in the absence of chemical substance (yeast gene YOR019W, incubated two hours with chemical substance): 1.4
The level of expressed mRNA in the presence of chemical substance/The level of expressed mRNA in the absence of chemical substance (yeast gene YOR129C): 1.3
The level of expressed mRNA in the presence of chemical substance/The level of expressed mRNA in the absence of chemical substance (yeast gene YOR197W, incubated two hours with chemical substance): 0.6
The level of expressed mRNA in the presence of chemical substance/The level of expressed mRNA in the absence of chemical substance (yeast gene YPL087W, incubated two hours with chemical substance): 0.6
The level of expressed mRNA in the presence of chemical substance/The level of expressed mRNA in the absence of chemical substance (yeast gene YPL196W, incubated two hours with chemical substance): 1.5
The level of expressed mRNA in the presence of chemical substance/The level of expressed mRNA in the absence of chemical substance (yeast gene YPL206C, incubated two hours with chemical substance): 0.7
The level of expressed mRNA in the presence of chemical substance/The level of expressed mRNA in the absence of chemical substance (yeast gene YPL222W, incubated two hours with chemical substance): 1.2
The level of expressed mRNA in the presence of chemical substance/The level of expressed mRNA in the absence of chemical substance (yeast gene YPL272C): 1.3
The level of expressed mRNA in the presence of chemical substance/The level of expressed mRNA in the absence of chemical substance (yeast gene YPR023C, incubated two hours with chemical substance): 1.1
The level of expressed mRNA in the presence of chemical substance/The level of expressed mRNA in the absence of chemical substance (yeast gene YPR150W): 1.3
The level of expressed mRNA in the presence of chemical substance/The level of expressed mRNA in the absence of chemical substance (yeast gene YPR151C, incubated two hours with chemical substance): 1.3
